Literature values, collected in patent US9433602B2, “Combination and composition for treating obesity” (LABORATORIOS SENOSIAIN S.A. DE C.V., priority 2010, dated 2016).
Several values for one entry are separate records, joined by “and”; a condition that tells them apart may be missing. Equal entries are not always repeated.

Columns and labels:
[1] = humans, taken orally
[2] = not given; remark: listed apart in the source
[3] = tested on: gastric and pancreatic lipases; conditions: pharmacological effect of the drug

Compound	Solubility in alcohol and methanol (alcohol and methanol)	Solubility in hydrochloric acid 10% (hydrochloric acid 10%)	Solubility in water	Bioavailability [1]	Half-life [1]	Plasma concentrations of intact orlistat ([2]; after single administration of 360 mg, normal weight and obese subjects)	Plasma concentrations in general ([2]; in general, no evidence of accumulation)	Share of the fecally excreted dose that was unchanged orlistat ([2]; of the dose excreted in feces)	Administered dose excreted in feces ([2]; people with normal weight or obese)	Decrease of the absorption of ingested fat [3]	Solubility in chloroform (chloroform)
Oc1ccc(C=Cc2cc(O)cc(O)c2)cc1 [Resveratrol, 3,5,4′-trihydroxystilbene]	soluble in alcohol and methanol	insoluble in hydrochloric acid 10%	insoluble in water								
Oc1ccc(/C=C/c2cc(O)cc(O)c2)cc1 [trans-resveratrol]				relatively low	approximately 8 h						
CCCCCCCCCCC[C@@H](C[C@@H]1OC(=O)[C@H]1CCCCCC)OC(=O)[C@H](CC(C)C)NC=O [orlistat]			insoluble in water			< 5 ng/mL	< 10 ng/ml and < 0.02 μM	83%	Approximately 97%	30%	easily soluble in chloroform
